From ChEMBL document CHEMBL5247633, “Discovery of novel analogs of KHS101 as transforming acidic coiled coil containing protein 3 (TACC3) inhibitors for the treatment of glioblastoma” (Eur J Med Chem, 2022)
Active and inactive are the calls of the source. No cut-off for these calls is given here.

Key:
JIMT-1 = test: Antiproliferative activity against human JIMT-1 cells assessed as cell growth inhibition measured after 72 hrs by MTT assay; type: functional, cell-based; conditions: JIMT-1, 72 h
SK-OV-3 = test: Antiproliferative activity against human SK-OV-3 cells assessed as cell growth inhibition measured after 72 hrs by MTT assay; type: functional, cell-based; conditions: SK-OV-3, 72 h
MDA-MB-231 = test: Antiproliferative activity against human MDA-MB-231 cells assessed as cell growth inhibition measured after 72 hrs by MTT assay; type: functional, cell-based; conditions: MDA-MB-231, 72 h
[1] = Antiproliferative activity against human HLF1 cells assessed as cell growth inhibition measured after 72 hrs by MTT assay; type: functional, cell-based; conditions: HLF1, 72 h
[2] = Cytotoxicity against human U251 cells assessed as inhibition of cell growth measured after 72 hrs by MTT assay; type: toxicity, cell-based, U-251
[3] = Antiproliferative activity against human U87 cells assessed as inhibition of cell growth incubated for 72 hrs by MTT assay; type: functional, cell-based, U-87MG ATCC; conditions: U-87 MG
U-87MG ATCC [4] = test: Inhibition of cell migration in human U87 cells assessed as reduction in cell migration incubated for 24 hrs by wound healing assay; type: functional, cell-based
[5] = Induction of apoptosis in human U87 cells assessed as late apoptosis at 4 uM incubated for 36 hrs by AnnexinV/propidium iodide staining based flow cytometry method relative to control (reference value: 0.52 %); type: functional, U-87MG ATCC
[6] = Induction of ROS generation in human U87 cells at 4 uM incubated for 36 hrs by DCF-DA based flow cytometry analysis relative to control (Rvb= 4.01 %); type: functional, U-87MG ATCC
U-87MG ATCC [7] = test: Antitumor activity against human U87 cells xenografted in BALB/c mouse model assessed as increase in apoptotic cells at 20 mg/kg, iv by TUNEL assay; type: functional, organism-based
[8] = Induction of cell cycle arrest in human U87 cells assessed as decrease in accumulation at G1 phase at 4 uM after 36 hrs by propidium iodide staining based flow cytometric analysis relative to control (reference value: 51.7 %); type: functional, U-87MG ATCC; parameters: scale not given: the % may be the effect or the level left
[9] = Inhibition of cell invasion in human U87 cells assessed as reduction in number of cells invaded at 4 uM incubated for 24 hrs by matrigel-coated transwell assay (reference value: 154.3%); type: functional, U-87MG ATCC
[10] = Inhibition of cell invasion in human U87 cells assessed as reduction in number of cells invaded at 1 uM incubated for 24 hrs by matrigel-coated transwell assay (reference value: 154.3%); type: functional, U-87MG ATCC
[11] = Induction of apoptosis in human U87 cells assessed as early apoptosis at 4 uM incubated for 36 hrs by AnnexinV/propidium iodide staining based flow cytometry method relative to control (reference value: 4.49 %); type: functional, U-87MG ATCC
[12] = Induction of cell cycle arrest in human U87 cells assessed as increase in accumulation at G2/M phase at 4 uM after 36 hrs by propidium iodide staining based flow cytometric analysis relative to control (reference value: 15.3 %); type: functional, U-87MG ATCC
[13] = target: Transforming acidic coiled-coil-containing protein 3 (Homo sapiens) (UniProt Q9Y6A5); test: Inhibition of TACC3 in human U87 cells assessed as stabilization of protein by measuring shift in thermal melting curve at 10 uM incubated for 6 hrs by cellular thermal shift assay; type: cell-based
[14] = Stability in human plasma assessed as half life; type: ADME, cell-free
[15] = target: Transforming acidic coiled-coil-containing protein 3 (Homo sapiens) (UniProt Q9Y6A5); test: Inhibition of TACC3 in human U87 cells assessed as stabilization of protein by measuring shift in thermal melting curve at 10 uM in presence of pronase incubated for 6 hrs by cellular thermal shift assay; type: cell-based
U-87MG ATCC [16] = test: Induction of cell cycle arrest in human U87 cells assessed as increase in accumulation at G2/M phase at 2 uM after 24 hrs by propidium iodide staining based flow cytometric analysis; type: functional
U-87MG ATCC [17] = test: Antiproliferative activity against shRNA mediated TACC3 knockdown human U87 cells assessed as reduction in cell viability; type: functional, cell-based
[18] = Inhibition of cell invasion in human U87 cells assessed as reduction in number of cells invaded at 2 uM incubated for 24 hrs by matrigel-coated transwell assay (reference value: 154.3%); type: functional, U-87MG ATCC
U-87MG ATCC [19] = test: Induction of apoptosis in human U87 cells assessed as increase in number of apoptotic cells by Hoechst 33258 staining method; type: functional, cell-based
U-87MG ATCC [20] = test: Induction of apoptosis in human U87 cells by AnnexinV/PI staining assay; type: functional, cell-based; conditions: dose 1-4 µM
[21] = Induction of mitochondrial membrane potential loss in human U87 cells assessed as increase in green fluorescence intensity at 0 to 4 uM incubated for 36 hrs by JC-1 staining based flow cytometry relative to control (reference value: 9.34 %); type: functional, U-87MG ATCC; conditions: dose 0-4 µM
U-87MG ATCC [22] = test: Antitumor activity against human U87 cells xenografted in BALB/c mouse model assessed as tumor growth regression at 20 mg/kg, iv measured on day 20; type: functional, organism-based
U-87MG ATCC [23] = test: Antitumor activity against human U87 cells xenografted in BALB/c mouse model assessed as decrease in Ki67 positive cells at 20 mg/kg, iv; type: functional, organism-based
[24] = Cytotoxicity against human U87 cells assessed as reduction in cell viability measured after 24 hrs by MTT assay; type: toxicity, cell-based, U-87MG ATCC
U-87MG ATCC [25] = test: Induction of ROS generation in human U87 cells at incubated for 36 hrs by DCF-DA based flow cytometry analysis; type: functional, cell-based; conditions: dose 1-4 µM
[26] = Antitumor activity against human U87 cells xenografted in BALB/c mouse model assessed as reduction in tumor weight at 20 mg/kg, iv measured on day 20; type: functional, U-87MG ATCC; parameters: scale not given: the % may be the effect or the level left
[27] = Stability in mouse plasma assessed as half life; type: ADME, cell-free
[28] = Toxicity in BALB/c mouse transplanted with human U87 cells assessed as effect in body weight at 20 mg/kg, iv; type: organism-based, U-87MG ATCC; conditions: in vivo
[29] = Induction of cell cycle arrest in shRNA induced in human U87 cells assessed as accumulation at G2/M phase at 1 to 4 uM by propidium iodide staining based flow cytometric analysis relative to control (reference value: 14.95 %); type: functional, U-87MG ATCC; conditions: dose 1-4 µM

c1ccc(-c2nc(CNc3nccc(N4CCCC4)n3)cs2)cc1
IC50 (JIMT-1): 29.6 µM | IC50 (SK-OV-3): 20.2 µM | IC50 (MDA-MB-231): 18.3 µM | IC50 [1]: 61.8 µM | IC50 at 72 h [2]: 17.4 µM | IC50 [3]: 26.2 µM

CC(C)CNc1ccnc(NCc2csc(-c3ccc(Cl)cc3)n2)n1
IC50 (JIMT-1): 26.9 µM | IC50 (SK-OV-3): 34.1 µM | IC50 (MDA-MB-231): 18.3 µM | IC50 [1]: 56.3 µM | IC50 at 72 h [2]: 18.5 µM | IC50 [3]: 16.6 µM

CCCN(CCC)c1ccnc(NCc2csc(-c3ccccc3)n2)n1
IC50 (JIMT-1): 16.9 µM | IC50 (SK-OV-3): 22.2 µM | IC50 (MDA-MB-231): 23.2 µM | IC50 [1]: 46.9 µM | IC50 at 72 h [2]: 16.2 µM | IC50 [3]: 16.4 µM

c1ccc(-c2nc(CNc3nccc(N4CCCCC4)n3)cs2)cc1
IC50 (JIMT-1): 21.9 µM | IC50 (SK-OV-3): 21.4 µM | IC50 (MDA-MB-231): 14.6 µM | IC50 [1]: 48.3 µM | IC50 at 72 h [2]: 12.3 µM | IC50 [3]: 8.39 µM

CC(C)CNc1ccnc(NCc2csc(-c3ccc(C(F)(F)F)cc3)n2)n1
IC50 (JIMT-1): 38 µM | IC50 (SK-OV-3): 39 µM | IC50 (MDA-MB-231): 33 µM | IC50 [1]: 65.3 µM | IC50 at 72 h [2]: 29.8 µM | IC50 [3]: 20.1 µM

CC(C)CNc1cccc(NCc2csc(-c3ccccc3)n2)c1
IC50 at 72 h [2]: > 100 µM | IC50 [3]: > 100 µM

c1ccc(-c2nc(CNc3nccc(NC4CCCCC4)n3)cs2)cc1
IC50 (JIMT-1): 19.4 µM | IC50 (SK-OV-3): 12.5 µM | IC50 (MDA-MB-231): 18.4 µM | IC50 [1]: 28.2 µM | IC50 at 72 h [2]: 10.8 µM | IC50 [3]: 11.6 µM

c1ccc(-c2nc(CNc3nccc(N4CCC4)n3)cs2)cc1
IC50 (JIMT-1): 25.7 µM | IC50 (SK-OV-3): 33.3 µM | IC50 (MDA-MB-231): 27.7 µM | IC50 [1]: 91.1 µM | IC50 at 72 h [2]: 29.2 µM | IC50 [3]: 21.5 µM

OC1CC2CC1CN2c1ccnc(NCc2csc(-c3ccccc3)n2)n1 (stereo not drawn)
inhibition (U-87MG ATCC [4]): Active | Activity [5]: 26.72% | Activity [6]: 54.28% | Activity (U-87MG ATCC [7]): Active | IC50 (JIMT-1): 4.84 µM | IC50 (SK-OV-3): 8.21 µM | Activity [8]: 74.6% | IC50 (MDA-MB-231): 6.46 µM | Activity [9]: 42.3 | Activity [10]: 119.7 | Activity [11]: 21.42% | IC50 [1]: 23.1 µM | Activity [12]: 41.2% | inhibition [13]: Active | half-life [14]: 4.2 h | inhibition [15]: Active | Activity (U-87MG ATCC [16]): Active | Activity (U-87MG ATCC [17]): Active | Activity [18]: 73 | IC50 at 72 h [2]: 5.61 µM | Activity (U-87MG ATCC [19]): Active | Activity (U-87MG ATCC [20]): Dose-Dependent Effect | IC50 [3]: 3.29 µM | Activity [21]: 48.58% | Activity (U-87MG ATCC [22]): Active | Activity (U-87MG ATCC [23]): Active | IC50 at 24 h [24]: 27.5 µM | Activity (U-87MG ATCC [25]): Dose-Dependent Effect | Activity [26]: 72.7% | half-life [27]: 2.1 h | Activity [28]: Non-Toxic | Activity [29]: 21.31%

COc1cccc2c1C(=O)c1c(O)c3c(c(O)c1C2=O)C[C@@](O)(C(=O)CO)C[C@@H]3O[C@H]1C[C@H](N)[C@H](O)[C@H](C)O1 [DOXORUBICIN]
IC50 (JIMT-1): 0.37 µM | IC50 (SK-OV-3): 0.19 µM | IC50 (MDA-MB-231): 0.32 µM | IC50 [1]: 0.23 µM | IC50 at 72 h [2]: 0.45 µM | IC50 [3]: 0.25 µM

CC(C)CNc1ccnc(NC(=O)c2csc(-c3ccccc3)n2)n1
IC50 (JIMT-1): > 100 µM | IC50 (SK-OV-3): 83.5 µM | IC50 (MDA-MB-231): > 100 µM | IC50 at 72 h [2]: 92.1 µM | IC50 [3]: 59.1 µM

CC(C)CNc1ccnc(NCc2csc(-c3ccccc3)c2)n1
IC50 (JIMT-1): 42.2 µM | IC50 (SK-OV-3): 26.2 µM | IC50 (MDA-MB-231): 27.4 µM | IC50 [1]: 61.2 µM | IC50 at 72 h [2]: 25.8 µM | IC50 [3]: 30.7 µM

c1ccc(-c2nc(CNc3ncccn3)cs2)cc1
IC50 at 72 h [2]: > 100 µM | IC50 [3]: > 100 µM

CCCCN(CCCC)c1ccnc(NCc2csc(-c3ccccc3)n2)n1
IC50 (JIMT-1): 13.2 µM | IC50 (SK-OV-3): 21.3 µM | IC50 (MDA-MB-231): 21.7 µM | IC50 [1]: 35.4 µM | IC50 at 72 h [2]: 14.2 µM | IC50 [3]: 14.8 µM

c1ccc(-c2nc(CNc3nccc(NC4CC4)n3)cs2)cc1
IC50 (JIMT-1): 68.8 µM | IC50 (SK-OV-3): 52.5 µM | IC50 (MDA-MB-231): > 100 µM | IC50 [1]: > 100 µM | IC50 at 72 h [2]: 59.5 µM | IC50 [3]: 72.3 µM

CC(C)CNc1ccnc(NCc2csc(-c3ccccc3)n2)n1
IC50 (JIMT-1): 33 µM | IC50 (SK-OV-3): 21.4 µM | IC50 (MDA-MB-231): 31.1 µM | IC50 [1]: 89.4 µM | IC50 at 72 h [2]: 49.1 µM | IC50 [3]: 37.9 µM
